We go through 25 compounds from ChEMBL document CHEMBL1145531, “Cyclopentanone ring-cleaved pleuromutilin derivatives” (2007).

≈ marks a conversion by molar mass, not a printed value.

Experiment [1] relates to Streptococcus pneumoniae. Briefly: Antibacterial activity against Streptococcus pneumoniae A9585 after 24 hrs. The note with it: A9585, 24 h. It counts as functional.
For experiment [2], the system named is Staphylococcus aureus. Briefly: Antibacterial activity against Staphylococcus aureus A15090 after 24 hrs. Format: functional. The note with it: A15090, 24 h.

With `C=C[C@]1(C)C[C@@H](OC(=O)CSc2ccccc2)[C@@]2(C)C(=O)[C@](CCC(=O)O)(CCC2C)[C@@H](C)[C@@H]1O` (stereo not given in full), the figures for the MIC in experiment [1] and in experiment [2] were more than 64 µg/mL and more than 128 µg/mL, respectively.
In the same order, the values of `C=C[C@]1(C)C[C@@H](OC(=O)CO)[C@@]2(C)C(=O)[C@](CCC(=O)NCC)(CCC2C)[C@@H](C)[C@@H]1O` (stereo not given in full) are more than 64 µg/mL and more than 128 µg/mL.
In the same order, the values of `C=C[C@]1(C)C[C@@H](OC(=O)CO)[C@]2(C)[C@H](C)CC[C@]3(CCC(=O)[C@@H]32)[C@@H](C)[C@@H]1O` [PLEUROMUTILIN] are 0.5 µg/mL (≈ 1.32 µM) and 0.5 µg/mL (≈ 1.32 µM).
In the same order, the values of `C=C[C@]1(C)C[C@@H](OC(=O)CO)[C@@]2(C)C(=O)[C@](CCNC(=O)OCc3ccccc3)(CCC2C)[C@@H](C)[C@@H]1O` (stereo not given in full) are 0.25 µg/mL (≈ 0.485 µM) and 16 µg/mL (≈ 31 µM).
As to `C=C[C@]1(C)C[C@@H](OC(=O)CSc2cccc(N)c2)[C@@]2(C)C(=O)[C@](CCC(=O)N(CC)CC)(CCC2C)[C@@H](C)[C@@H]1O` (stereo not given in full), the minimum inhibitory concentration (MIC) in experiment [1] was determined as 4 µg/mL (≈ 6.98 µM); in experiment [2], 32 µg/mL (≈ 55.9 µM).
`C=C[C@]1(C)C[C@@H](OC(=O)CO)[C@@]2(C)C(=O)[C@](CCCNC(=O)c3ccno3)(CCC2C)[C@@H](C)[C@@H]1O` (stereo not given in full): the results for the MIC in experiment [1] and in experiment [2] were 2 µg/mL (≈ 4.08 µM) and 32 µg/mL (≈ 65.2 µM), respectively.
In the same order, the values of `C=C[C@]1(C)C[C@@H](OC(=O)CSc2cccc(N)c2)[C@@]2(C)C(=O)[C@](CCC)(CCC2C)[C@@H](C)[C@@H]1O` (stereo not given in full) are 8 µg/mL (≈ 16.4 µM) and 16 µg/mL (≈ 32.8 µM).
On the same counts, the results for `C=C[C@]1(C)C[C@@H](OC(=O)CSc2ccncc2)[C@@]2(C)C(=O)[C@](CCC(=O)O)(CCC2C)[C@@H](C)[C@@H]1O` (stereo not given in full) are 64 µg/mL (≈ 127 µM) and 128 µg/mL (≈ 254 µM).
In the same order, the values of `C=C[C@]1(C)C[C@@H](OC(=O)CO)[C@@]2(C)C(=O)[C@](CCC(=O)O)(CCC2C)[C@@H](C)[C@@H]1O` (stereo not given in full) are 8 µg/mL (≈ 19.5 µM) and 8 µg/mL (≈ 19.5 µM).
On to `C=C[C@]1(C)C[C@@H](OC(=O)CSc2ccncc2)[C@@]2(C)C(=O)[C@](CCC(=O)OCC)(CCC2C)[C@@H](C)[C@@H]1O` (stereo not given in full), for which the MIC in experiment [1] and in experiment [2] was 8 µg/mL (≈ 15 µM) throughout.
`C=C[C@]1(C)C[C@@H](OC(=O)CO)[C@@]2(C)C(=O)[C@](CCCO)(CCC2C)[C@@H](C)[C@@H]1O` (stereo not given in full): the minimal inhibitory concentration (MIC) was more than 64 µg/mL in experiment [1] and more than 128 µg/mL in experiment [2].
In the same order, the values of `C=C[C@]1(C)C[C@@H](OC(=O)CSc2cccc(N)c2)[C@@]2(C)C(=O)[C@](CCC(=O)O)(CCC2C)[C@@H](C)[C@@H]1O` (stereo not given in full) are 0.125 µg/mL (≈ 0.241 µM) and 0.25 µg/mL (≈ 0.483 µM).
In the same order, the values of `C=C[C@]1(C)C[C@@H](OC(=O)CSc2ccccc2O)[C@@]2(C)C(=O)[C@](CCC(=O)O)(CCC2C)[C@@H](C)[C@@H]1O` (stereo not given in full) are 4 µg/mL (≈ 7.71 µM) and 8 µg/mL (≈ 15.4 µM).
Consider `C=C[C@]1(C)C[C@@H](OC(=O)CSc2cccc(N)c2)[C@@]2(C)C(=O)[C@](CCC(=O)OCC)(CCC2C)[C@@H](C)[C@@H]1O` (stereo not given in full), for which the MIC in experiment [1] and in experiment [2] was 1 µg/mL (≈ 1.83 µM) throughout.
Consider `C=C[C@]1(C)C[C@@H](OC(=O)CSc2cccc(N)c2)[C@@]2(C)C(=O)[C@](CCC(=O)NCC(=O)O)(CCC2C)[C@@H](C)[C@@H]1O` (stereo not given in full), for which the values for the MIC in experiment [1] and in experiment [2] were 2 µg/mL (≈ 3.48 µM) and 8 µg/mL (≈ 13.9 µM), respectively.
In the same order, the values of `C=C[C@]1(C)C[C@@H](OC(=O)CO)[C@@]2(C)C(=O)[C@](CCC(=O)N(CC)CC)(CCC2C)[C@@H](C)[C@@H]1O` (stereo not given in full) are more than 64 µg/mL and more than 128 µg/mL.
On the same counts, the results for `C=C[C@]1(C)C[C@@H](OC(=O)CSc2cccc(N)c2)[C@@]2(C)C(=O)[C@](CCC(=O)NCC(=O)OC(C)(C)C)(CCC2C)[C@@H](C)[C@@H]1O` (stereo not given in full) are 0.5 µg/mL (≈ 0.793 µM) and 4 µg/mL (≈ 6.34 µM).
On the same counts, the results for `C=C[C@]1(C)C[C@@H](OC(=O)CSc2nnc(N)[nH]2)[C@@]2(C)C(=O)[C@](CCC(=O)O)(CCC2C)[C@@H](C)[C@@H]1O` (stereo not given in full) are more than 64 µg/mL and more than 128 µg/mL.
Take `C=C[C@]1(C)C[C@@H](OC(=O)CSc2ccccn2)[C@@]2(C)C(=O)[C@](CCC(=O)OCC)(CCC2C)[C@@H](C)[C@@H]1O` (stereo not given in full): the MIC in experiment [1] and in experiment [2] was 1 µg/mL (≈ 1.88 µM) each time.
In the case of `C=C[C@]1(C)C[C@@H](OC(=O)CO)[C@@]2(C)C(=O)[C@](CCC(N)=O)(CCC2C)[C@@H](C)[C@@H]1O` (stereo not given in full), the MIC in experiment [1] amounted to 64 µg/mL (≈ 156 µM); in experiment [2], 128 µg/mL (≈ 313 µM).
In the same order, the values of `C=C[C@]1(C)C[C@@H](OC(=O)CO)[C@@]2(C)C(=O)[C@](CCN)(CCC2C)[C@@H](C)[C@@H]1O` (stereo not given in full) are more than 64 µg/mL and more than 128 µg/mL.
In the same order, the values of `C=C[C@]1(C)C[C@@H](OC(=O)CSc2ccccn2)[C@@]2(C)C(=O)[C@](CCC(=O)O)(CCC2C)[C@@H](C)[C@@H]1O` (stereo not given in full) are 8 µg/mL (≈ 15.9 µM) and 8 µg/mL (≈ 15.9 µM).
On the same counts, the results for `C=C[C@]1(C)C[C@@H](OC(=O)CO)[C@@]2(C)C(=O)[C@](CCNC(=O)OCC)(CCC2C)[C@@H](C)[C@@H]1O` (stereo not given in full) are 0.25 µg/mL (≈ 0.551 µM) and 16 µg/mL (≈ 35.3 µM).
Consider `C=C[C@]1(C)C[C@@H](OC(=O)CSc2cc(C)nc(C)c2)[C@@]2(C)C(=O)[C@](CCC(=O)N(CC)CC)(CCC2C)[C@@H](C)[C@@H]1O` (stereo not given in full), for which the figures for the MIC in experiment [1] and in experiment [2] were 4 µg/mL (≈ 6.82 µM) and 32 µg/mL (≈ 54.5 µM), respectively.
In the same order, the values of `C=C[C@]1(C)C[C@@H](OC(=O)CSc2ccccc2C(=O)O)[C@@]2(C)C(=O)[C@](CCC(=O)N(CC)CC)(CCC2C)[C@@H](C)[C@@H]1O` (stereo not given in full) are 4 µg/mL (≈ 6.65 µM) and 32 µg/mL (≈ 53.2 µM).
